US20240358846A1, “Nanoparticles and Peptides for the Delivery of Cargos to Muscle Cells” (4BASEBIO, S.L.U., priority 2021, published 2024)

Tests used:
[1] = test system: C2C12 cells; experiment: GFP expression in C2C12 cells transfected with closed linear DNA:lipid:peptide nanoparticles; type: cell-based, mouse; conditions: DOTMA/DOPE 2:1 with 10% cholesterol, 300 ng/well, 48 h, FIG. 20
Description: GFP expression was measured 48 h post transfection. n=3 in all experiments, error bars=S.D. Nanoparticles containing no peptide were used as a control. […] Nanoparticles containing no peptide in their formulation lead to a transfection efficiency of 12% indicating the lowest transfection efficiency in treated cells.
(§1) Nanoparticles were formulated manually by pipetting following a mass ratios of 1:3:2.1.6 (closed linear DNA:lipid:peptide). Firstly, the closed linear DNA, lipid and peptide were suspended in Ultra pure water in volumes of 60 ul, 60 ul and 80 ul, respectively. Components were mixed following the order-lipid to peptide, closed linear DNA to lipid+peptide mix. Nanoparticles were allowed to incubate for 30 minutes at room temperature. All samples were diluted in serum-free media before transferring them onto cells. C2C12 cells were transfected with 300 ng/well of closed linear DNA. The microplate was centrifuged at 12000 rpm for 5 minutes and incubated at 37 C for 4 hours. After 4 hours, cells were trypsinised and prepared for Flow Cytometry analysis.

[2] = test system: C2C12 cells; experiment: GFP expression in C2C12 cells transfected with mRNA:lipid:peptide nanoparticles; type: cell-based, mouse; conditions: mRNA:lipid:peptide 1:5:2.5, DOTMA/DOPE 2:1 with 10% cholesterol, 500 ng/well, 4 h, FIG. 16
Description: Shown in FIG. 16 is GFP expression in C2C12 cells transfected with mRNA derived from linearised plasmid encapsulated in lipid-peptide nanoparticles.
as §1, with “1:5:2.5 (mRNA:lipid:peptide).” for “1:3:2.1.6 (closed linear DNA:lipid:peptide).”, “components mRNA,” for “closed linear DNA,”, “mRNA” for “closed linear DNA”, “500” for “300”, “mRNA nanoparticles.” for “closed linear DNA.”, “FAQs.” for “Flow Cytometry analysis.”

[3] = Size and PDI of mRNA:lipid:peptide nanoparticles (FIG. 19); type: physicochemical; conditions: DOTMA/DOPE 2:1 with 10% cholesterol
Excerpt: Table presented in FIG. 19 presents size (nm) and polydispersity index (PDI) values for the mRNA:lipid:peptide nanoparticles. Sizes of fully formed nanoparticles range from 31 nm for MD2, to 37 nm for MD3 while nanoparticles formulated without a peptide are 61 nm. PDI value is low across all samples which translates into low polydispersity of the nanoparticle population.

[4] = test system: C2C12 cells; experiment: GFP expression in C2C12 cells transfected with pDNA:lipid:peptide nanoparticles (flow cytometry, microscopy); type: cell-based, mouse; conditions: 48 h; for cells expressing GFP (GFP expression level, transfection efficiency): pDNA:lipid:peptide nanoparticles, different targeting sequences, FIG. 2; for cells expressing GFP (GFP expression level, transfection efficiency) / GFP transfection efficiency: DD 2:1 with 20% cholesterol; for GFP transfection efficiency: pDNA:lipid:peptide, MD2 in different conformations, FIG. 4
Description: C2C12 cells, an immortalised mouse myoblast line, were cultured in Dulbecco's Modified Eagle's Medium (DMEM, Gibco) containing 10% fetal bovine serum (FBS, Gibco) and 1% pen/strep (Gibco).
Transfections in C2C12 cells were performed with a range of peptide:liposome:nucleic acid cargo ratios. Transfections were performed in a 96-well plate at a density of 8,000 cells per well seeded 24 h previously. Charge and mass ratio of components in the transfection complex varied; DNA was maintained at a constant mass of 300 ng per well, while lipid component was altered. In one case, the molar ratio of the cationic lipid C18 to the phospholipid DOPE was kept at 1:1 (DD). In another case, the molar ratio of the cationic lipid C18 to the phospholipid DOPE was kept at 2:1 (DD 2:1), while cholesterol was added at a molar percentage of 10 or 20% of the total lipid content. The mass ratio of linear DNA:liposome:peptide was maintained at 1:3:3, while the muscle-cell binding peptides were in some cases altered.
(§2) Transfection complexes were formed via electrostatic interaction by vigorous pipetting, before diluting in a final volume of 200 μl per well, with a DNA concentration of 1.5 ng/μl. All dilutions were performed with OptiMEM reduced serum media. Controls included cells with no transfection complexes added (OptiMEM only).
Transfection complexes were incubated for 30 min at RT before adding to cells. All conditions were performed in triplicate. Cells were incubated at 37° C. for 4 hours, before replacing media with growth media. 48 h post-transfection, the cells were rinsed in PBS, before incubation in 0.05% Trypsin EDTA (Gibco) to detach the cells. Cells were then re-suspended in PBS for analysis by flow cytometry.

[5] = test system: H9C2 cells; experiment: GFP expression in H9C2 cells transfected with nucleic acid-lipid-peptide nanoparticles (flow cytometry); type: cell-based, rat; conditions: 300 ng/well; for GFP positive cells (transfection efficiency): mRNA in lipid-peptide nanoparticles, 4 h post transfection, FIG. 13; for cells GFP positive (transfection efficiency): 48 h post-transfection
Description: H9C2 cells, an immortalised cell line derived from embryonic rate heart tissue were cultured in Dulbecco's Modified Eagle's Medium (DMEM, Gibco) containing 10% fetal bovine serum (FBS, Gibco) and 1% pen/strep (Gibco).
Transfections in H9C2 cells were performed with a range of peptide:liposome:nucleic acid cargo ratios. Transfections were performed in a 96-well plate at a density of 8,000 cells per well seeded 24 h previously. Closed linear DNA/mRNA was maintained at a constant mass of 300 ng per well, while peptide component was altered. The molar ratio of the cationic lipid C18 to the phospholipid DOPE was kept at 2:1 (DD 2:1), while cholesterol was added at a molar percentage of 10% of the total lipid content. The mass ratio of closed linear DNA/mRNA:liposome:peptide was maintained at 1:5:2.52.
as §2, with “ul” for “μl”, “ng/ul.” for “ng/μl.”, “only), complexes targeting a different cell, or complexes with no targeting sequence component.” for “only).”
Transfection complexes were incubated for 30 min at RT before adding to cells. All conditions were performed in triplicate. Cells were incubated at 37° C. for 4 hours, before replacing media with growth media.
In the case of mRNA, 4 h post-transfection, the cells were rinsed in PBS, before incubation in 0.05% Trypsin EDTA (Gibco) to detach the cells. Cells were then resuspended in PBS for analysis by flow cytometry. In the case of closed linear DNA, 48 h post-transfection, the cells were rinsed in PBS, before incubation in 0.05% Trypsin EDTA (Gibco) to detach the cells. Cells were then resuspended in PBS for analysis by flow cytometry.

[6] = Size and polydispersity index of closed linear DNA-lipid-peptide nanoparticles by DLS (FIG. 15); type: physicochemical; conditions: C18/CHOL/DOPE (58/10/32)
Description: Dynamic Light Scattering (DLS) measurements were conducted using Zetasizer Ultra (Malvern Panalytical). Each bar represents average value of three measurements (n=3). Complexes were prepared as before, except formulated in nuclease-free water rather than Opti-MEM. Samples containing 0.7 μg closed linear DNA were diluted in 1 ml for analysis. Particles ranged from 37 nm (MD2L) to 57 nm (MD2CC), with PDI values ranging from 0.12 to 0.28. Liposomes encapsulating closed linear DNA with no targeting ligand were used as a control, with a larger size of 70 nm and PDI of 0.13.

[7] = test system: HEK293 cells; experiment: In-vitro transfection efficiency in HEK293 cells of closed linear DNA nanoparticles stored at +4° C. (luciferase assay); type: cell-based; conditions: 300 ng closed linear DNA nanoparticles stored up to 40 weeks at +4° C., tested every 5 weeks, FIG. 22B
Description: Nanoparticles were transfected in HEK293 cells at 5 week intervals. GFP expression was measured 48 h post transfection. n=3 in all experiments.
Shown in FIG. 22B is relative luminescence units per microgram of protein (RLU/mg of protein) of HEK293 cells transfected with closed linear DNA nanoparticles stored for 40 weeks at +4° C. […] Cells were transfected with 300 ng of closed linear DNA nanoparticles every 5 weeks.

[8] = Size and PDI of miRNA-lipid-peptide complexes, hand-mixing vs microfluidics (DLS); type: physicochemical; conditions: FIG. 23; for size of complexes: C18/DOPE 2:1 with 10% cholesterol
Excerpt: Shown in FIG. 23 is size and polydispersity index (PDI) of miDNA-lipid-peptide complexes formulated through two different methods: hand-mixing—where complexes are formed by vigorous pipetting using a micropipette; or through a microfluidics platform. The lipid components comprised of C18/DOPE at a molar ratio of 2:1 with 10% cholesterol. The final formulation was following a mass ratio of 1:5 closed linear DNA:liposomes with N/P ratio of 6 driven by the peptide C1L-N-16-K16GAAPWHLSSQYSRT (SEQ ID NO: 49).
The hand-mixed complexes were formed by firstly suspending each of the components in ultra pure water, with the following mixing order-liposomes to peptide, closed linear DNA to liposomes+peptide complexes. Nanoparticles were allowed to incubate for 30 minutes at room temperature prior to a further dilution in water required for biophysical charaterisation by a DLS system (Zetasizer Ultra-Malvern).
For complexes formed through a microfluidics device (Nanoassemblr Ignite-Precision Nanosystems), lipid components were suspended in 99% pure ethanol at identical ratios to hand-mixed particles. Lipid components in ethanol were loaded onto the instrument along with miRNA and peptide C1L, both suspended in water. A flow rate ratio (FRR) of 1:3 of miRNA to lipid was mixed together at a total flow rate (TFR) of 12 mL/min prior to the addition of the peptide (FRR of 1:1, TFR 12 mL/min). The complexes formulated using the Nanoassemblr we then dialysed for 4 h using a Slide-a-Lyzer dialysis cassette (ThermoFisher) to remove residual ethanol.

[9] = test system: HEK293 cells; experiment: GFP expression in HEK293 cells transfected with plasmid DNA-peptide complexes or DNA-lipid-peptide nanoparticles; type: cell-based; conditions: particles formed using DNA and peptide only, 48 h, FIG. 5
Description: GFP expression was imaged 48 h post transfection. n=3 in all experiments, error bars=S.D.
The high expression in C2C12 compared with HEK293 cells is particularly impressive owing to the high transfection efficiency achievable in HEK293 cells.

[10] = Biophysical characterisation of DNA-lipid-peptide nanoparticle (DLS, ELS, MADLS); type: physicochemical
Description: The size in nm by Dynamic Light Scattering (DLS), zeta potential in mV by Electrophoretic Light Scattering (ELS), and concentration of particles per ml by Multi-Angle Dynamic Light Scattering (MADLS) of the hpDNA-lipid-peptide nanoparticles was determined using the Zetasizer Ultra (Malvern). Complexes were prepared as before, except formulated in nuclease-free water rather than Opti-MEM. Samples containing 0.7 μg plasmid were diluted in 1 ml for analysis.

[11] = plasmid DNA-lipid-peptide nanoparticles, FIG. 10
[12] = closed linear DNA-lipid-peptide nanoparticles, FIG. 11

## KKKKKKKKKKKKKKKKRVRRGACASSLNIAC [MD1CC]
[1]
  cells expressing GFP (transfection efficiency): 29%

## SKTFNTHPQSTP [MD3]
[2]
  cells expressing GFP (transfection efficiency): 72%
[3]
  size: 37 nm
[4]; C2C12
  cells expressing GFP (GFP expression level, transfection efficiency): 22.68%

## KKKKKKKKKKKKKKKKGARRQPPRSISSHP [MD2L]
[5]
  GFP positive cells (transfection efficiency): 33%
[5]; [11]
  cells GFP positive (transfection efficiency): 27%
[6]
  size (DLS): 37 nm
[7]
  transfection efficiency after storage (luminescence signal, luciferase assay): sustained luminescence signal across all time points
[4]; C2C12
  GFP transfection efficiency: 8.24%

## KKKKKKKKKKKKKKKKRVRRGACSKTFNTHPQSTPC [MD3CC]
[1]
  cells expressing GFP (transfection efficiency): 25%

## KKKKKKKKKKKKKKKKGAASSLNIA [MD1L]
[5]; [11]
  cells GFP positive (transfection efficiency): 20%

## ASSLNIA [MD1]
[2]
  cells expressing GFP (transfection efficiency): 73%
[4]; C2C12
  cells expressing GFP (GFP expression level, transfection efficiency): 73%

## KKKKKKKKKKKKKKKKGAAPWHLSSQYSRT [C1L-N-16]
[8]; hand-mixed
  size of complexes: 60 nm
  PDI: 0.23
[8]; microfluidics
  size of complexes: 40 nm
  PDI: 0.16

## KKKKKKKKKKKKKKKKRVRRGACRRQPPRSISSHPC [MD2CC]
[6]
  size (DLS): 57 nm
[4]; C2C12
  GFP transfection efficiency: 50.06%

## KKKKKKKKKKKKKKKKGACRRQPPRSISSHPC [MD2C]
[5]; [12]
  cells GFP positive (transfection efficiency): 6%
[5]; [11]
  cells GFP positive (transfection efficiency): 26%
[9]
  GFP expression visualised by microscopy: No GFP expression
[10]; DNA-lipid-peptide nanoparticle, C18 (DOTMA) DOPE 10% cholesterol, FIG. 6A
  size of the particle (DLS): 89.4 nm
[10]; DNA-lipid-peptide nanoparticle, C18 (DOTMA) DOPE 10% cholesterol, FIG. 6B
  zeta potential (ELS): 24.8 mV
[10]; accounting for the 1 in 100 dilution, FIG. 6E, F
  particle titre (MADLS): 10 E12 particles per ml
[4]; C2C12
  GFP transfection efficiency: 30.08%
[4]; C2C12, particles formed using DNA and peptide only, FIG. 5
  GFP expression visualised by microscopy: some GFP expression
[4]; fully formed nanoparticle with lipid DD with 10% cholesterol, FIG. 5
  GFP expression, C2C12 compared to HEK293 cells (specificity): much higher in C2C12 cells as compared to HEK293 cells

## RRQPPRSISSHP [MD2]
[2]
  cells expressing GFP (transfection efficiency): 59%
[3]
  size: 31 nm
[4]; C2C12
  cells expressing GFP (GFP expression level, transfection efficiency): 50.1%

## KKKKKKKKKKKKKKKKGAWLSEAGPVVTVRALRGTGSW [C2L-N-16]
[5]
  GFP positive cells (transfection efficiency): 26%

## KKKKKKKKKKKKKKKKKKKKKKKKKKKKKKGACRRQPPRSISSHPC [MD2C-K30, targeting peptide named MD2C-K30]
[5]; [12]
  cells GFP positive (transfection efficiency): 5%
